From US20260306644A1, “ANTIBODY RECRUITING MOLECULES FOR THE TREATMENT OF CORONAVIRUS DISEASE-19” (priority 2023, published 2026)
Values joined by “and” are separate entries in the source; they are usually repeats but may differ in a detail not shown here. Equal entries are not always repeated. Where two headings read alike, the source gives them in different places.

Experiments:
SARS-CoV-2 Spike protein = SARS-CoV-2 Spike protein (Severe acute respiratory syndrome coronavirus 2, UniProt P0DTC2); experiment: Ternary binding of SARS-CoV-2 Spike protein (293T cells expressing Spike-GFP, IgG-AF647, flow cytometry); type: cell-based; details: 293T cells expressing Spike-GFP; IgG-AF647 10 μg/ml; repeat values/batches listed separately; read-out: SARS-CoV-2 Ternary binding EC50
Experimental: 293T cells stably expressing SARS-CoV-2 Spike-GFP protein on their surface were incubated with a concentration range of compound for 30 minutes at 37° C.-5% CO2 in Roswell Park Memorial Institute Medium (RPMI)-5% low IgG serum with 10 μg/ml IgG-Alexa Fluor® 647 (AF647). The cells were washed twice using the same medium, resuspended in phosphate-buffered saline (PBS)-1% bovine serum albumin (BSA), and acquired on Attune™ NxT Flow Cytometer. In some embodiments, mean fluorescence intensity of AF647 as well as […] AF647 positive in GFP positive gate are reported as readouts in this assay.

[1] = target: T1, SARS-CoV-2 Spike A (wild-type) (Severe acute respiratory syndrome coronavirus 2, UniProt P0DTC2); experiment: MSD ACE2 competition assay (inhibition of Spike binding with ACE2, ECL), A (wild-type)
T1 construct: purchased Meso Scale Diagnostics, LLC V-PLEX SARS-CoV-2 Panel 13 (ACE2) Kit / Panel 23 (ACE2) Kit

[2] = IC50 Wild Type, Wild Type Spike

| Structure (SMILES) | EC50 (SARS-CoV-2 Spike protein) | IC50 [1, 2] [nM] | IC50 ([1]; read-out: IC50 Wild Type, Wild Type Spike) [nM] |
| --- | --- | --- | --- |
| CC[C@H](C)[C@H](NC(=O)[C@H](CC(C)C)NC(=O)[C@H](CC(=O)O)NC(=O)[C@H](CO)NC(=O)[C@@H](NC(=O)[C@H](CCCNC(=N)N)NC(=O)[C@H](CCSC)NC(=O)[C@H](CO)NC(=O)[C@H](C)NC(=O)[C@H](CCC(=O)O)NC(=O)[C@H](C)NC(=O)[C@H](Cc1c[nH]cn1)NC(=O)CNC(=O)[C@H](CC(C)C)NC(=O)[C@H](CCC(=O)O)NC(=O)[C@H](CC(=O)O)NC(=O)[C@H](CC(C)C)NC(=O)[C@H](CC(C)C)NC(=O)[C@H](CCCNC(=N)N)NC(=O)[C@H](CCSC)NC(=O)[C@@H](NC(=O)[C@H](CCC(=O)O)NC(=O)[C@H](Cc1ccc(O)cc1)NC(=O)[C@@H](NC(=O)[C@H](CCCCN)NC(=O)[C@H](CCC(N)=O)NC(=O)[C@H](CC(C)C)NC(=O)[C@@H](NC(=O)[C@H](Cc1c[nH]c2ccccc12)NC(=O)[C@H](CCC(=O)O)NC(=O)[C@H](CCCCN)NC(=O)[C@@H](N)CC(=O)O)[C@@H](C)CC)[C@@H](C)CC)[C@@H](C)CC)C(C)C)C(=O)N[C@@H](Cc1ccc(O)cc1)C(=O)N[C@@H](CCC(=O)O)C(=O)N[C@@H](Cc1ccccc1)C(=O)N[C@@H](CCSC)C(=O)N[C@@H](CCCCN)C(=O)N[C@@H](CCCCN)C(=O)NCC(=O)NCC(=O)NCC(=O)NCC(=O)N[C@@H](CC(=O)O)C(=O)N[C@H]1CSSC[C@@H](C(=O)N[C@H](C(=O)O)[C@@H](C)O)NC(=O)[C@H](Cc2c[nH]c3ccccc23)NC(=O)[C@H](C(C)C)NC(=O)[C@H](CC(C)C)NC(=O)[C@H](CCC(=O)O)NC(=O)CNC(=O)[C@H](CC(C)C)NC(=O)[C@H](Cc2c[nH]cn2)NC(=O)[C@H](Cc2c[nH]c3ccccc23)NC(=O)[C@H](C)NC1=O [Compound 106] | 2.6 nM and 2.5 nM | 22.1 |  |
| CC[C@H](C)[C@H](NC(=O)[C@H](CC(C)C)NC(=O)[C@H](CC(=O)O)NC(=O)[C@H](CO)NC(=O)[C@@H](NC(=O)[C@H](CCCNC(=N)N)NC(=O)[C@H](CCSC)NC(=O)[C@H](CO)NC(=O)[C@H](C)NC(=O)[C@H](CCC(=O)O)NC(=O)[C@H](C)NC(=O)[C@H](Cc1c[nH]cn1)NC(=O)CNC(=O)[C@H](CC(C)C)NC(=O)[C@H](CCC(=O)O)NC(=O)[C@H](CC(=O)O)NC(=O)[C@H](CC(C)C)NC(=O)[C@H](CC(C)C)NC(=O)[C@H](CCCNC(=N)N)NC(=O)[C@H](CCSC)NC(=O)[C@@H](NC(=O)[C@H](CCC(=O)O)NC(=O)[C@H](Cc1ccc(O)cc1)NC(=O)[C@@H](NC(=O)[C@H](CCCCN)NC(=O)[C@H](CCC(N)=O)NC(=O)[C@H](CC(C)C)NC(=O)[C@@H](NC(=O)[C@H](Cc1c[nH]c2ccccc12)NC(=O)[C@H](CCC(=O)O)NC(=O)[C@H](CCCCN)NC(=O)[C@H](CC(=O)O)NC(C)=O)[C@@H](C)CC)[C@@H](C)CC)[C@@H](C)CC)C(C)C)C(=O)N[C@@H](Cc1ccc(O)cc1)C(=O)N[C@@H](CCC(=O)O)C(=O)N[C@@H](Cc1ccccc1)C(=O)N[C@@H](CCSC)C(=O)N[C@@H](CCCCN)C(=O)N[C@@H](CCCCN)C(=O)NCC(=O)N[C@@H](CC(=O)O)C(=O)N[C@H]1CSSC[C@@H](C(=O)N[C@H](C(N)=O)[C@@H](C)O)NC(=O)[C@H](Cc2c[nH]c3ccccc23)NC(=O)[C@H](C(C)C)NC(=O)[C@H](CC(C)C)NC(=O)[C@H](CCC(=O)O)NC(=O)CNC(=O)[C@H](CC(C)C)NC(=O)[C@H](Cc2c[nH]cn2)NC(=O)[C@H](Cc2c[nH]c3ccccc23)NC(=O)[C@H](C)NC1=O [Compound 129] | 2.3 nM and 3 nM | 25 |  |
| CC[C@H](C)[C@H](NC(=O)[C@H](CC(C)C)NC(=O)[C@H](CC(=O)O)NC(=O)[C@H](CO)NC(=O)[C@@H](NC(=O)[C@H](CCCNC(=N)N)NC(=O)[C@H](CCSC)NC(=O)[C@H](CO)NC(=O)[C@H](C)NC(=O)[C@H](CCC(=O)O)NC(=O)[C@H](C)NC(=O)[C@H](Cc1c[nH]cn1)NC(=O)CNC(=O)[C@H](CC(C)C)NC(=O)[C@H](CCC(=O)O)NC(=O)[C@H](CC(=O)O)NC(=O)[C@H](CC(C)C)NC(=O)[C@H](CC(C)C)NC(=O)[C@H](CCCNC(=N)N)NC(=O)[C@H](CCSC)NC(=O)[C@@H](NC(=O)[C@H](CCC(=O)O)NC(=O)[C@H](Cc1ccc(O)cc1)NC(=O)[C@@H](NC(=O)[C@H](CCCCN)NC(=O)[C@H](CCC(N)=O)NC(=O)[C@H](CC(C)C)NC(=O)[C@@H](NC(=O)[C@H](Cc1c[nH]c2ccccc12)NC(=O)[C@H](CCC(=O)O)NC(=O)[C@H](CCCCN)NC(=O)[C@H](CC(=O)O)NC(C)=O)[C@@H](C)CC)[C@@H](C)CC)[C@@H](C)CC)C(C)C)C(=O)N[C@@H](Cc1ccc(O)cc1)C(=O)N[C@@H](CCC(=O)O)C(=O)N[C@@H](Cc1ccccc1)C(=O)N[C@@H](CCSC)C(=O)N[C@@H](CCCCN)C(=O)N[C@@H](CCCCN)C(=O)NCC(=O)NCCOCCOCCOCCOCCOCCOCCOCCOCCC(=O)NCCOCCOCCOCCOCCOCCOCCOCCOCCC(=O)NCCOCCOCCOCCOCCOCCOCCOCCOCCC(=O)N[C@@H](CC(=O)O)C(=O)N[C@H]1CSSC[C@@H](C(=O)N[C@H](C(=O)O)[C@@H](C)O)NC(=O)[C@H](Cc2c[nH]c3ccccc23)NC(=O)[C@H](C(C)C)NC(=O)[C@H](CC(C)C)NC(=O)[C@H](CCC(=O)O)NC(=O)CNC(=O)[C@H](CC(C)C)NC(=O)[C@H](Cc2c[nH]cn2)NC(=O)[C@H](Cc2c[nH]c3ccccc23)NC(=O)[C@H](C)NC1=O [Compound 168] | 0.19 nM |  | 3.26 |
| CC[C@H](C)[C@H](NC(=O)[C@H](CC(C)C)NC(=O)[C@H](CC(=O)O)NC(=O)[C@H](CO)NC(=O)[C@@H](NC(=O)[C@H](CCCNC(=N)N)NC(=O)[C@H](CCSC)NC(=O)[C@H](CO)NC(=O)[C@H](C)NC(=O)[C@H](CCC(=O)O)NC(=O)[C@H](C)NC(=O)[C@H](Cc1c[nH]cn1)NC(=O)CNC(=O)[C@H](CC(C)C)NC(=O)[C@H](CCC(=O)O)NC(=O)[C@H](CC(=O)O)NC(=O)[C@H](CC(C)C)NC(=O)[C@H](CC(C)C)NC(=O)[C@H](CCCNC(=N)N)NC(=O)[C@H](CCSC)NC(=O)[C@@H](NC(=O)[C@H](CCC(=O)O)NC(=O)[C@H](Cc1ccc(O)cc1)NC(=O)[C@@H](NC(=O)[C@H](CCCCN)NC(=O)[C@H](CCC(N)=O)NC(=O)[C@H](CC(C)C)NC(=O)[C@@H](NC(=O)[C@H](Cc1c[nH]c2ccccc12)NC(=O)[C@H](CCC(=O)O)NC(=O)[C@H](CCCCN)NC(=O)[C@@H](N)CC(=O)O)[C@@H](C)CC)[C@@H](C)CC)[C@@H](C)CC)C(C)C)C(=O)N[C@@H](Cc1ccc(O)cc1)C(=O)N[C@@H](CCC(=O)O)C(=O)N[C@@H](Cc1ccccc1)C(=O)N[C@@H](CCSC)C(=O)N[C@@H](CCCCN)C(=O)N[C@@H](CCCCN)C(=O)N[C@@H](CC(=O)O)C(=O)N[C@H]1CSSC[C@@H](C(=O)N[C@H](C(=O)O)[C@@H](C)O)NC(=O)[C@H](Cc2c[nH]c3ccccc23)NC(=O)[C@H](C(C)C)NC(=O)[C@H](CC(C)C)NC(=O)[C@H](CCC(=O)O)NC(=O)CNC(=O)[C@H](CC(C)C)NC(=O)[C@H](Cc2c[nH]cn2)NC(=O)[C@H](Cc2c[nH]c3ccccc23)NC(=O)[C@H](C)NC1=O [Compound 115] | 0.34 nM and 0.36 nM and 0.23 nM and 0.26 nM | 45.7 |  |
| CC[C@H](C)[C@H](NC(=O)[C@H](CC(C)C)NC(=O)[C@H](CC(=O)O)NC(=O)[C@H](CO)NC(=O)[C@@H](NC(=O)[C@H](CCCNC(=N)N)NC(=O)[C@H](CCSC)NC(=O)[C@H](CO)NC(=O)[C@H](C)NC(=O)[C@H](CCC(=O)O)NC(=O)[C@H](C)NC(=O)[C@H](Cc1c[nH]cn1)NC(=O)CNC(=O)[C@H](CC(C)C)NC(=O)[C@H](CCC(=O)O)NC(=O)[C@H](CC(=O)O)NC(=O)[C@H](CC(C)C)NC(=O)[C@H](CC(C)C)NC(=O)[C@H](CCCNC(=N)N)NC(=O)[C@H](CCSC)NC(=O)[C@@H](NC(=O)[C@H](CCC(=O)O)NC(=O)[C@H](Cc1ccc(O)cc1)NC(=O)[C@@H](NC(=O)[C@H](CCCCN)NC(=O)[C@H](CCC(N)=O)NC(=O)[C@H](CC(C)C)NC(=O)[C@@H](NC(=O)[C@H](Cc1c[nH]c2ccccc12)NC(=O)[C@H](CCC(=O)O)NC(=O)[C@H](CCCCN)NC(=O)[C@H](CC(=O)O)NC(=O)[C@@H](NC(=O)[C@@H]1CSSC[C@H](NC(=O)[C@H](CC(=O)O)NC(C)=O)C(=O)N[C@@H](C)C(=O)N[C@@H](Cc2c[nH]c3ccccc23)C(=O)N[C@@H](Cc2c[nH]cn2)C(=O)N[C@@H](CC(C)C)C(=O)NCC(=O)N[C@@H](CCC(=O)O)C(=O)N[C@@H](CC(C)C)C(=O)N[C@@H](C(C)C)C(=O)N[C@@H](Cc2c[nH]c3ccccc23)C(=O)N1)[C@@H](C)O)[C@@H](C)CC)[C@@H](C)CC)[C@@H](C)CC)C(C)C)C(=O)N[C@@H](Cc1ccc(O)cc1)C(=O)N[C@@H](CCC(=O)O)C(=O)N[C@@H](Cc1ccccc1)C(=O)N[C@@H](CCSC)C(=O)N[C@@H](CCCCN)C(=O)N[C@@H](CCCCN)C(=O)O [Compound 121] | 0.83 nM and 0.78 nM | 10.8 |  |
